# Data as given in patent US20080206149A1, “METHOD, DYE AND MEDICAMENT FOR STAINING THE INTERNAL LIMITING MEMBRANE, EPIRETINAL MEMBRANE, THE VITREOUS AND/OR THE CAPSULE OF AN EYE” (LUDWIG-MAXIMILIANS-UNIVERSITAT MUNCHEN, priority 2005, published 2008).
# How the values were obtained:
# lens capsule [1] = assay: Staining of lens capsule removed during intraocular surgery; conditions: concentrations of 0.5% or less; dye removed after one minute
# Experimental: (§1) The following four dyes were examined as examples for the inventive dyes in the present study: Light green yellowish SF (LG SF), E68, Bromophenol blue (BPB) and Chicago blue (CB). ICG (Pulsion, Munich, Germany) was used as a reference. All dyes were dissolved and diluted with balanced salt solution (BSS plus; Alcon Laboratories Inc., Fort Worth, Tex.) and concentrations of 1.0, 0.5, 0.2 and 0.05% were obtained. Dry ICG powder was first dissolved with sterile water provided by the manufacturer resulting in a 0.5% solution and then further diluted using BSS plus to a concentration of 0.05%. The dyes were then used to stain lens capsule and epiretinal membranes removed during intraocular surgery. Immediately after removal, the material was placed on a glass slide and covered with a few drops of the dye. After one minute, the dye was carefully removed by irrigation using BSS plus. Lens capsule and epiretinal tissue was then evaluated macroscopically and using light microscopy. The staining effect was subjectively graded as “excellent, good, fair or absent” by one unmasked person and photographs were taken.
# [2] = test system: epiretinal membranes (ERM); assay: Staining of epiretinal membranes removed during intraocular surgery; conditions: concentration of 1%; dye removed after one minute
# Experimental: as §1
# lens capsule [3] = assay: Staining of the lens capsule in enucleated porcine eyes; conditions: injected into air-filled anterior chamber, removed after one minute; clear porcine lens as background
# Experimental: Additionally, the staining characteristics of the lens capsule in enucleated porcine eyes with a postmortem time of nine hours were evaluated. The dyes were injected into the air-filled anterior chamber and removed by irrigation after one minute. Then, the cornea was removed and a capsulorhexis was performed with a bent needle. All procedures were taped on video.
# [4] = Light absorbing properties (UV/VIS/NIR spectrometer); type: physicochemical; conditions: measured up to a content of 0.05% dye
# Experimental: Light absorption was measured in 0.05% solutions, with BSS plus as a solvent medium. Light absorption was measured instantly after preparation of a stock solution of the dye using a UV/VIS/NIR Spectrometer (Lambda 900, Perkin Elmer) between 200 and 1000 nm.
# ARPE-19 cells [5] = assay: Life-dead assay (propidium iodide / Hoechst 33342), ARPE-19 cells; type: cell-based
# Experimental: (§2) Confluent RPE and ARPE-19 cells were prepared and treated as described above. Cell viability was quantified based on a two-color fluorescence assay in which the nuclei of nonviable cells appear red because of staining by the membrane-impermeable dye propidium iodide (Sigma), whereas the nuclei of all cells were stained with the membrane-permeable dye Hoechst 33342 (Intergen, Purchase, N.Y.). […] For evaluation of cell viability, cells were washed in PBS and incubated with 2.0 μg/mL propidium iodide and 1.0 μg/mL Hoechst 33342 for 20 minutes at 37° C. Subsequently, cells were analyzed with an epifluorescence microscope (Axioskop; Zeiss, Göttingen, Germany). The labeled nuclei were then counted in fluorescence photomicrographs, and dead cells were expressed as a percentage of total nuclei in the field. The data are based on counts from three experiments performed in duplicate wells, with three to five documented representative fields per well.
# primary RPE cells [6] = assay: Life-dead assay (propidium iodide / Hoechst 33342), primary RPE cells; type: cell-based
# Experimental: Invest Ophthalmol Vis Sci 2002; 43: 3575-82.
# as §2
# vitreous = assay: Staining of the vitreous during pars plana vitrectomy in porcine eyes; type: in vivo; conditions: graded by two examiners
# Experimental: All dyes were dissolved and diluted using balanced salt solution (BSS plus; Alcon Laboratories Inc., Fort Worth, Tex).
# Experiments were performed in animals (porcine eyes) and humans after approval of the local ethics committee had been obtained. All experiments were performed in compliance with the Declaration of Helsinki.
# Ophthalmic surgery consisted of a standard pars plana vitrectomy. First, the transparent vitreous was removed as completely as possible. Then fluid air exchange was performed in order to avoid an uncontrolled distribution of the dye in the vitreous cavity. The dye was then injected into the air filled globe. After a period of one minute, the dye was washed out by irrigation with BSS. This was followed by an injection of the dye in concentrations from 0.2% to 2%. The staining of the vitreous was graded by two examiners who also performed the surgical procedures.
# ARPE-19 cells [7] = assay: MTT assay, ARPE-19 cells; conditions: 0.2% and 0.02% dye, 10 minutes exposure, compared to BSS plus control
# Experimental: ARPE-19 cells, a human retinal pigment epithelial cell line (42), were purchased from ATCC (Manassas, Va., USA) and grown in a 1:1 mixture of Dulbecco's modified Eagles medium and Ham's F12 medium (DMEM/Ham's F12, Biochrom), supplemented with 10% FCS (Biochrom).
# For exposure of dyes RPE and ARPE-19 cells were kept for 24 hours under serum free conditions. After washing cells three times with PBS, cells were incubated for 10 minutes with 300 μl of BSS plus containing 0.2% or 0.02% of dye, respectively. […] The dye was then removed by carefully rinsing cells with BSS plus three times. After 24 hours incubation with serum containing media the cell proliferation assay was performed. RPE cells (p3-6) were seeded in 24-well plates and exposed to two concentrations (0.2 and 0.02%) of dyes. BSS plus alone and H2O2, (200 μL/mL) served as controls.
# The tetrazolium dye-reduction assay (MTT; 3-[4,5-dimethylthiazol-2-yl]-2,5-diphenyl tetrazolium bromide;) was used to determine cell survival rate. […] The medium was removed, cells were washed with PBS, and 1000 μL/well MTT solution (1.5 mL MTT stock, 2 mg/mL in PBS, plus 28.5 mL DMEM) was added. RPE cells were incubated at 37° C. for 1 hour. The formazan crystals that formed were dissolved by the addition of dimethyl sulfoxide (DMSO; 1000 μL/well). Absorption was measured by a scanning multiwell spectrophotometer at 550 nm (Molecular Probes, Garching, Germany). […] Experiments were performed in triplicate and repeated three times. RPE and ARPE-19 cells of the same passage incubated with BSS without addition of dyes served as control. Statistical comparison between dye concentrations was performed with SPSS (Mann-Whitney-U-Test).
# The MTT test as performed in this study is a well established test for the assessment of cell viability, but relies on calorimetric measurement of a blue (550 nm) formazan reaction product. This color overlaps with the absorption spectra of some of the dyes tested. […] Cell monolayers were treated with dyes as per the experiments described above but absorbance readings were performed without prior application of MTT. […]
# primary RPE cells [8] = assay: MTT assay, primary RPE cells; conditions: 0.2% and 0.02% dye, 10 minutes exposure, compared to BSS plus control
# Description: In brief, whole eyes were thoroughly cleansed in 0.9% NaCl solution, immersed in 5% polyvinyl pyrrolidone iodine, and rinsed again in the sodiumchloride solution. The anterior segment from each donor eye was removed and the posterior poles were examined with the aid of a binocular stereomicroscope to confirm the absence of gross retinal disease. Next, the neural retinas were carefully peeled away from the RPE-choroid-sclera using fine forceps. The eye cup was rinsed with Ca^2+ and Mg^2+-free Hank's balanced salt solution, and filled with 0.25% trypsin (GIBCO, Karlsruhe, Germany) for 30 min at 37° C. The trypsin was carefully aspirated and replaced with Dulbecco's modified eagles medium (DMEM, Biochrom, Berlin, Germany) supplemented with 20% fetal calf serum (FCS, Biochrom). Using a pipette, the media was gently agitated, releasing the RPE into the media by avoiding damage to Bruch's membrane. The RPE cell solution was transferred to a 50 ml flask (Falcon, Wiesbaden, Germany) containing 20 ml of DMEM (Biochrom) supplemented with 20% FCS (Biochrom) and maintained at 37° C. and 5% carbon dioxide. […] After having grown to confluency (100%), primary RPE cells were subcultured and maintained in DMEM (Biochrom) supplemented with 10% FCS (Biochrom) at 37° C. and 5% carbon dioxide. Primary RPE of passage 3-6 and ARPE-19 cells were used for experiments.
# For exposure of dyes RPE and ARPE-19 cells were kept for 24 hours under serum free conditions. After washing cells three times with PBS, cells were incubated for 10 minutes with 300 μl of BSS plus containing 0.2% or 0.02% of dye, respectively. […] The dye was then removed by carefully rinsing cells with BSS plus three times. After 24 hours incubation with serum containing media the cell proliferation assay was performed. […]
# The tetrazolium dye-reduction assay (MTT; 3-[4,5-dimethylthiazol-2-yl]-2,5-diphenyl tetrazolium bromide;) was used to determine cell survival rate. […] Absorption was measured by a scanning multiwell spectrophotometer at 550 nm (Molecular Probes, Garching, Germany). […]
compound,measurement,setting,value
CCN(Cc1cccc(S(=O)(=O)O)c1)c1ccc(C(=C2C=CC(=[N+](CC)Cc3cccc(S(=O)(=O)O)c3)C=C2)c2ccc(S(=O)(=O)O)cc2)cc1.[Na+].[Na+] [Light green SF],staining effect in removed lens capsule material,lens capsule [1],did not stain lens capsule sufficiently
same,staining of ERM,[2],weak staining
same,staining of the lens capsule in porcine eyes,lens capsule [3],weak staining effects
same,"position of the long wavelength maximum, influence of dye concentration",[4],not influenced by the dye concentration
same,"cell viability, nuclei of nonviable cells labeled with propidium iodide",ARPE-19 cells [5],significantly affect cell viability
same,toxicity of 0.02% in comparison to the 0.2% dye solution,ARPE-19 cells [5],far less toxic
same,"cell viability, nuclei of nonviable cells labeled with propidium iodide",primary RPE cells [6],significantly affect cell viability
same,toxicity of 0.02% in comparison to the 0.2% dye solution,primary RPE cells [6],far less toxic
same,staining effect of the vitreous,vitreous; dye concentration 0.2%,strong
same,staining effect of the vitreous,vitreous; dye concentration 2.0%,strong
same,cell survival of ARPE-19 cells (MTT),ARPE-19 cells [7],no significant impact on cell survival
same,cell survival of primary RPE cells (MTT),primary RPE cells [8],no influence on cell survival
Chicago blue,staining of the lens capsule in porcine eyes,lens capsule [3],stained well
same,"position of the long wavelength maximum, influence of dye concentration",[4],not influenced by the dye concentration
same,"cell viability, nuclei of nonviable cells labeled with propidium iodide",ARPE-19 cells [5],significantly affect cell viability
same,"cell viability, nuclei of nonviable cells labeled with propidium iodide",primary RPE cells [6],significantly affect cell viability
same,staining effect of the vitreous,vitreous; dye concentration 0.2%,weak
same,staining effect of the vitreous,vitreous; dye concentration 2.0%,strong
same,cell survival of ARPE-19 cells (MTT),ARPE-19 cells [7],no significant impact on cell survival
same,cell survival of primary RPE cells (MTT),primary RPE cells [8],no influence on cell survival
"Copperphtalocyanine-3,4′,4″,4′″-tetrasulphonic acid tetrasodium salt [E68]",staining of the lens capsule in porcine eyes,lens capsule [3],stained well
same,"cell viability, nuclei of nonviable cells labeled with propidium iodide",ARPE-19 cells [5],did not affect cell survival
same,"cell viability, nuclei of nonviable cells labeled with propidium iodide",primary RPE cells [6],did not affect cell survival
same,staining effect of the vitreous,vitreous; dye concentration 0.2%,weak
same,staining effect of the vitreous,vitreous; dye concentration 2.0%,strong
